Reference: patent US20140005163A1 (NOVARTIS AG, priority 2010, published 2014)

Key:
Type in all cases: biochemical
PI3K alpha = biological target: T1, PI3K alpha (Homo sapiens, UniProt P42336); test: PI3K alpha kinase assay (Kinase-Glo luminescence)
T1 construct: p85(iSH2) fusion partner (see partner chain) (N); His tag (C); made in house; host or cells: baculovirus; Tn5 (Trichoplusia ni) or TiniPro insect cells
In short: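 PI3K alpha at 10 nM with 1 μM ATP and 10 μg/mL phosphatidylinositol in 10 mM TRIS pH 7.5, 3 mM MgCl2, 50 mM NaCl, 0.05% CHAPS, 1 mM DTT, 60 min at room temperature. Remaining ATP read by Kinase-Glo luminescence. IC50 by 4-parameter fit over 8 concentrations.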

PI3K beta = biological target: T2, PI3K beta (Homo sapiens, UniProt P42338); test: PI3K beta kinase assay (Kinase-Glo luminescence)
T2 construct: for the full-length p110-b subunit are generated and fused by overlapping PCR; p85(iSH2) fusion partner (see partner chain) (N); His tag (C); made in house; host or cells: baculovirus; Tn5 (Trichoplusia ni) or TiniPro insect cells
T2 sequence (P42338 with tags, fused parts or gaps limits assumed): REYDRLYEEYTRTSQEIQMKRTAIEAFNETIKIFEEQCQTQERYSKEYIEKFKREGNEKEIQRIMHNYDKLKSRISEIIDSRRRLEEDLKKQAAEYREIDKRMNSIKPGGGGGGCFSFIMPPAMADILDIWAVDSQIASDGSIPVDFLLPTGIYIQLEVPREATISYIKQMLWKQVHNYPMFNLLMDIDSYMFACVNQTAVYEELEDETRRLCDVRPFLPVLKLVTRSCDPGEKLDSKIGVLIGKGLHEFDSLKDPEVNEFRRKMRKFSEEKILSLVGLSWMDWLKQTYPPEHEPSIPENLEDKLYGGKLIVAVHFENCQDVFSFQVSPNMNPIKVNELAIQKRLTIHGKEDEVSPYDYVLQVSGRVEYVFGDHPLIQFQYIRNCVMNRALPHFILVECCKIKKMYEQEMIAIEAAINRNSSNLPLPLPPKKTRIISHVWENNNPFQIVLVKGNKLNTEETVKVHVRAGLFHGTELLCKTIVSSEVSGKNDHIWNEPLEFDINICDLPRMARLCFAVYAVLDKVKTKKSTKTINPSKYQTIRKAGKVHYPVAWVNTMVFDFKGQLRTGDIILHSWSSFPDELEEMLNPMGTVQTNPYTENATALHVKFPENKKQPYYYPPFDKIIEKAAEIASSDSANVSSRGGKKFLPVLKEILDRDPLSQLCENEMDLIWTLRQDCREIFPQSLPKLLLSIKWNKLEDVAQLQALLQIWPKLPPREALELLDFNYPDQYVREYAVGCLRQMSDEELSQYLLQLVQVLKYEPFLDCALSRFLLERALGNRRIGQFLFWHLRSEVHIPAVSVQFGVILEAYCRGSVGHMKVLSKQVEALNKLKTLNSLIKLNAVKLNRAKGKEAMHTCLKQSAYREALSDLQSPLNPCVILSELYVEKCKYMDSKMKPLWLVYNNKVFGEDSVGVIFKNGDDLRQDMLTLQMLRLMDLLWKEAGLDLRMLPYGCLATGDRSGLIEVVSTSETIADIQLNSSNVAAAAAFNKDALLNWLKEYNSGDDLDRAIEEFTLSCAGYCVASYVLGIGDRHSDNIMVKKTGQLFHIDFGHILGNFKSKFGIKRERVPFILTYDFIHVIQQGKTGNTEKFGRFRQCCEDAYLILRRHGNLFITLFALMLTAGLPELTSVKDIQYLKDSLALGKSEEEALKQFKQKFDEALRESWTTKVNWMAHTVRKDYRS
In short: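 Kinase-Glo luminescence after a 60 min room-temperature reaction gives remaining ATP. The reaction holds 25 nM p85(iSH2)-p110β full-length His-tagged construct, 1 μM ATP, 10 μg/mL PI, and eight compound concentrations at 0.45% DMSO final. IC50 values come from a four-parameter logistic fit.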

PI3K delta = biological target: T3, PI3K delta (Homo sapiens, UniProt O00329); test: PI3K delta kinase assay (Kinase-Glo luminescence)
T3 construct: for the full-length p110-d subunit are generated and fused by overlapping PCR; p85(iSH2) fusion partner (see partner chain) (N); His tag (C); made in house; host or cells: baculovirus; Tn5 (Trichoplusia ni) or TiniPro insect cells
T3 sequence (O00329 with tags, fused parts or gaps limits assumed): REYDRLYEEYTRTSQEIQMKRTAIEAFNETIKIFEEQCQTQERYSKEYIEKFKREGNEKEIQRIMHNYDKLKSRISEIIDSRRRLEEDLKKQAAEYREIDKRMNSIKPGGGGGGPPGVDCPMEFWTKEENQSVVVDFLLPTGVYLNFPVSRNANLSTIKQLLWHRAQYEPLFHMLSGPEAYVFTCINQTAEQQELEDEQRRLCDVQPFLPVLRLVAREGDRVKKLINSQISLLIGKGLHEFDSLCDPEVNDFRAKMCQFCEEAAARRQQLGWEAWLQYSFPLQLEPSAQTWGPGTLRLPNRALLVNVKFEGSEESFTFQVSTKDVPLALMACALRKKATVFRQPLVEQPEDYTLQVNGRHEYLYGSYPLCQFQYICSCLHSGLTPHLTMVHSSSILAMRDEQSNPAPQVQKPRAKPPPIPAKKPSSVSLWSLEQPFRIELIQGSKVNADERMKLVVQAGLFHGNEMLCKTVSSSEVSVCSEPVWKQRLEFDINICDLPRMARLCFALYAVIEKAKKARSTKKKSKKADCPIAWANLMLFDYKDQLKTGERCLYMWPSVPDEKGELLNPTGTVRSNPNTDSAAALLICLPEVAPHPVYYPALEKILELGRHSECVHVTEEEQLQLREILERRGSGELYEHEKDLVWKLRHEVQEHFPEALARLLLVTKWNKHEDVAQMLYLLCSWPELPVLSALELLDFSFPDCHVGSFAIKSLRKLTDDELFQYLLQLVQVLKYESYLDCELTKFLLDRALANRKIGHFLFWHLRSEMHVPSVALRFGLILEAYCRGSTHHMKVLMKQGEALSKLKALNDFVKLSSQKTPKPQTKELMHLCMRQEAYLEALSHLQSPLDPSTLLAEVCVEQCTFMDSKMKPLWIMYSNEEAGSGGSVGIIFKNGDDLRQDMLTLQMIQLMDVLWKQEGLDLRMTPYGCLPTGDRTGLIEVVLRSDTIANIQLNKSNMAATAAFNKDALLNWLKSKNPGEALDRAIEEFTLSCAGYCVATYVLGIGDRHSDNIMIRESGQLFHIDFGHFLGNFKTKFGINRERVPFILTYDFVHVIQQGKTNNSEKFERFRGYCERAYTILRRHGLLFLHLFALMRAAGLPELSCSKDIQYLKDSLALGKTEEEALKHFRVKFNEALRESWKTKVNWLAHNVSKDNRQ
In short: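 Construct BV-1060, p85 iSH2–linker–full-length p110δ, His-tagged, at 10 nM, with 1 μM ATP and 10 μg/mL phosphatidylinositol in pH 7.5 Tris, 3 mM MgCl2, 50 mM NaCl, 0.05% CHAPS. Run 60 min at room temperature; remaining ATP read by Kinase-Glo luminescence; IC50 from 4-parameter logistic fit of 8 concentrations.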

T1 sequence (P42336 with tags, fused parts or gaps limits assumed): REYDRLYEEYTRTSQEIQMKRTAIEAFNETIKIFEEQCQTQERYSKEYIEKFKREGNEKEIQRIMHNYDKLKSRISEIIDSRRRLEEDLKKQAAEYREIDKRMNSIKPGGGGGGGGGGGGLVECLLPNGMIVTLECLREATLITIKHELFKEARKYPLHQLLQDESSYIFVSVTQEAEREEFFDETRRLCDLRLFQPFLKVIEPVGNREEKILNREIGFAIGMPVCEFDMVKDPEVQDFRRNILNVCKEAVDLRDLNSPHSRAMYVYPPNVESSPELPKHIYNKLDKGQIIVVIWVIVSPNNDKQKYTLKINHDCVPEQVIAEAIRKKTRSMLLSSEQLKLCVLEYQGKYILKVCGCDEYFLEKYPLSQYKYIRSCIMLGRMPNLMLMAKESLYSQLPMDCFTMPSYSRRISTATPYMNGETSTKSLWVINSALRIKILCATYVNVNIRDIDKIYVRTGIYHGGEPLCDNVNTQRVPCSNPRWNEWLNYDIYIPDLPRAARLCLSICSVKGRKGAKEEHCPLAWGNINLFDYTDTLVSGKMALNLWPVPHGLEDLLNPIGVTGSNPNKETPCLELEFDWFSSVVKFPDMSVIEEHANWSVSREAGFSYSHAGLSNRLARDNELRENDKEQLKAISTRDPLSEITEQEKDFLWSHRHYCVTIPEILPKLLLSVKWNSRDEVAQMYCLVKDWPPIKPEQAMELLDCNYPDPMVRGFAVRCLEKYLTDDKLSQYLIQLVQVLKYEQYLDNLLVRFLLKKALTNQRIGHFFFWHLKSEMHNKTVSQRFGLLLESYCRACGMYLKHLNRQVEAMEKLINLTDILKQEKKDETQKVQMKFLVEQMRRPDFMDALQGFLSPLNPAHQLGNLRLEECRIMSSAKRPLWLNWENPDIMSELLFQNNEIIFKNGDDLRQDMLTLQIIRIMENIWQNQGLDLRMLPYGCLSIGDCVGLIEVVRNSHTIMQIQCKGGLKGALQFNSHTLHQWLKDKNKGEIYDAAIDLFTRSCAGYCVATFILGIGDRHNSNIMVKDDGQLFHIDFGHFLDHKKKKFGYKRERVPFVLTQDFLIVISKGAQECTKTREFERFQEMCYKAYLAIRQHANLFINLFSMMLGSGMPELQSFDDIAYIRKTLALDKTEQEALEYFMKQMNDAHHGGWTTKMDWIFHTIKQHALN

Row | Compound | IC50 (PI3K alpha) [nM] | IC50 (PI3K beta) [nM] | IC50 (PI3K delta) [nM]
1 | CNc1ncc(-c2ccc3ncc4c(c3c2)n(-c2c(C)nn(C)c2C)c(=O)n4C)cc1Cl [Example 146.4, 8-(5-Chloro-6-methylamino-pyridin-3-yl)-3-methyl-1-(1,3,5-trimethyl-1H-pyrazol-4-yl)-1,3-dihydro-imidazo[4,5-c]quinolin-2-one] | 35 | 176 | 19
2 | CCn1cc(-n2c(=O)n(C)c3cnc4ccc(-c5cnc(NC)nc5OC)cc4c32)c(C)n1 [Example 236, 1-(1-Ethyl-3-methyl-1H-pyrazol-4-yl)-8-(4-methoxy-2-methylamino-pyrimidin-5-yl)-3-methyl-1,3-dihydro-imidazo[4,5-c]quinolin-2-one] | 15 | 90 | 7
3 | CCn1cc(-n2c(=O)n(C)c3cnc4ccc(-c5cnc(COC)c(OC)c5)cc4c32)c(C)n1 [Example 195.3, 1-(1-Ethyl-3-methyl-1H-pyrazol-4-yl)-8-(5-methoxy-6-methoxymethyl-pyridin-3-yl)-3-methyl-1,3-dihydro-imidazo[4,5-c]quinolin-2-one] | 48 | 161 | 34
4 | COc1ccc(-c2ccc3ncc4c(c3c2)n(-c2cc(C)nn2C)c(=O)n4C)cn1 [Example 2.3, 1-(2,5-Dimethyl-2H-pyrazol-3-yl)-8-(6-methoxy-pyridin-3-yl)-3-methyl-1,3-dihydro-imidazo[4,5-c]quinolin-2-one] | 30 | 180 | 30
5 | CCNc1cc(-c2ccc3ncc4c(c3c2)n(-c2c(C)nn(CC(=O)N(C)C)c2C)c(=O)n4C)cnc1C [Example 87.5, 2-{4-[8-(5-Ethylamino-6-methyl-pyridin-3-yl)-3-methyl-2-oxo-2,3-dihydro-imidazo[4,5-c]quinolin-1-yl]-3,5-dimethyl-pyrazol-1-yl}-N,N-dimethyl-acetamide] | 43 | 335 | 35
6 | CCN(C)C(=O)Cn1cc(-n2c(=O)n(C)c3cnc4ccc(-c5ccccc5)cc4c32)c(C)n1 [Example 135, N-Ethyl-N-methyl-2-[3-methyl-4-(3-methyl-2-oxo-8-phenyl-2,3-dihydro-imidazo[4,5-c]quinolin-1-yl)-pyrazol-1-yl]-acetamide] | 76 | – | –
7 | Cc1noc(C)c1-n1c(=O)n(C)c2cnc3ccc(-c4cnc(N)c(Cl)c4)cc3c21 [Example 148.4, 8-(6-Amino-5-chloro-pyridin-3-yl)-1-(3,5-dimethyl-isoxazol-4-yl)-3-methyl-1,3-dihydro-imidazo[4,5-c]quinolin-2-one] | 100 | 95 | 45
8 | CCNc1cc(-c2ccc3ncc4c(c3c2)n(-c2c(C)nn(CCOC)c2C)c(=O)n4C)cnc1OC [Example 90.2, 8-(5-Ethylamino-6-methoxy-pyridin-3-yl)-1-[1-(2-methoxy-ethyl)-3,5-dimethyl-1H-pyrazol-4-yl]-3-methyl-1,3-dihydro-imidazo[4,5-c]quinolin-2-one] | 44 | 115 | 26
9 | CCN(C)C(=O)Cn1cc(-n2c(=O)n(C)c3cnc4ccc(-c5cnc(N6CCCC6)nc5)cc4c32)c(C)n1 [Example 140.1, N-Ethyl-N-methyl-2-{3-methyl-4-[3-methyl-2-oxo-8-(2-pyrrolidin-1-yl-pyrimidin-5-yl)-2,3-dihydro-imidazo[4,5-c]quinolin-1-yl]-pyrazol-1-yl}-acetamide] | 168 | – | –
10 | CCOc1ccc(-c2ccc3ncc4c(c3c2)n(-c2ccnn2CC)c(=O)n4C)cn1 [Example 3.4, 8-(6-Ethoxy-pyridin-3-yl)-1-(2-ethyl-2H-pyrazol-3-yl)-3-methyl-1,3-dihydro-imidazo[4,5-c]quinolin-2-one] | 217 | – | 283
11 | CCNc1cc(-c2ccc3ncc4c(c3c2)n(-c2c(C)nn(C)c2C)c(=O)n4C)cnc1F [Example 154.1, 8-(5-Ethylamino-6-fluoro-pyridin-3-yl)-3-methyl-1-(1,3,5-trimethyl-1H-pyrazol-4-yl)-1,3-dihydro-imidazo[4,5-c]quinolin-2-one] | 157 | 98 | 37
12 | Cc1nn(CC(=O)N(C)C)c(C)c1-n1c(=O)n(C)c2cnc3ccc(-c4cncc(OC5CCC5)c4)cc3c21 [Example 60.2, 2-{4-[8-(5-Cyclobutoxy-pyridin-3-yl)-3-methyl-2-oxo-2,3-dihydro-imidazo[4,5-c]quinolin-1-yl]-3,5-dimethyl-pyrazol-1-yl}-N,N-dimethyl-acetamide] | 315 | – | 694
13 | Cc1nn(CC(=O)N(C)C)cc1-n1c(=O)n(C)c2cnc3ccc(-c4ccccc4)cc3c21 [Example 37.3, N,N-Dimethyl-2-[3-methyl-4-(3-methyl-2-oxo-8-phenyl-2,3-dihydro-imidazo[4,5-c]quinolin-1-yl)-pyrazol-1-yl]-acetamide] | 71 | – | –

Other lines, results leading:

Row | IC50 (PI3K alpha) [nM] | IC50 (PI3K beta) [nM] | IC50 (PI3K delta) [nM] | Compound
14 | 5 | 9 | 9 | Cc1ncc(-c2ccc3ncc4c(c3c2)n(-c2cn(C)nc2C)c(=O)n4C)cc1O [Example 185.1, 1-(1,3-Dimethyl-1H-pyrazol-4-yl)-8-(5-hydroxy-6-methyl-pyridin-3-yl)-3-methyl-1,3-dihydro-imidazo[4,5-c]quinolin-2-one]
15 | 37 | 163 | 35 | COCc1ncc(-c2ccc3ncc4c(c3c2)n(-c2cn(C(C)C)nc2C)c(=O)n4C)cc1OC [Example 195.2, 1-(1-Isopropyl-3-methyl-1H-pyrazol-4-yl)-8-(5-methoxy-6-methoxymethyl-pyridin-3-yl)-3-methyl-1,3-dihydro-imidazo[4,5-c]quinolin-2-one]
16 | 14 | 142 | 98 | CNc1ncc(-c2ccc3ncc4c(c3c2)n(-c2cn(C)nc2C)c(=O)n4C)cc1F [Example 141.2, 1-(1,3-Dimethyl-1H-pyrazol-4-yl)-8-(5-fluoro-6-methylamino-pyridin-3-yl)-3-methyl-1,3-dihydro-imidazo[4,5-c]quinolin-2-one]
17 | 93 | 280 | 41 | CNC(=O)c1cc(-c2ccc3ncc4c(c3c2)n(-c2cn(C(C)C)nc2C)c(=O)n4C)cnc1N [Example 224.2, 2-Amino-5-[1-(1-isopropyl-3-methyl-1H-pyrazol-4-yl)-3-methyl-2-oxo-2,3-dihydro-1H-imidazo[4,5-c]quinolin-8-yl]-N-methyl-nicotinamide]
18 | 5 | 11 | 4 | Cc1ncc(-c2ccc3ncc4c(c3c2)n(-c2cn(C)nc2C)c(=O)n4C)cc1N(C)C [Example 164, 8-(5-Dimethylamino-6-methyl-pyridin-3-yl)-1-(1,3-dimethyl-1H-pyrazol-4-yl)-3-methyl-1,3-dihydro-imidazo[4,5-c]quinolin-2-one]
19 | 9 | 23 | 8 | Cc1nn(C)cc1-n1c(=O)n(C)c2cnc3ccc(-c4cncc(C(C)(C)C#N)c4)cc3c21 [Example 220.1, 2-{5-[1-(1,3-Dimethyl-1H-pyrazol-4-yl)-3-methyl-2-oxo-2,3-dihydro-1H-imidazo[4,5-c]quinolin-8-yl]-pyridin-3-yl}-2-methyl-propionitrile]
20 | 138 | 161 | 58 | COc1ncc(-c2ccc3ncc4c(c3c2)n(-c2cn(C)nc2C)c(=O)n4C)cc1C#N [Example 132, 5-[1-(1,3-Dimethyl-1H-pyrazol-4-yl)-3-methyl-2-oxo-2,3-dihydro-1H-imidazo[4,5-c]quinolin-8-yl]-2-methoxy-nicotinonitrile]
21 | 50 | 93 | 40 | COc1ncc(-c2ccc3ncc4c(c3c2)n(-c2cn(C)nc2C)c(=O)n4C)cc1C(N)=O [Example 125.2, 5-[1-(1,3-Dimethyl-1H-pyrazol-4-yl)-3-methyl-2-oxo-2,3-dihydro-1H-imidazo[4,5-c]quinolin-8-yl]-2-methoxy-nicotinamide]
22 | 33 | 84 | 25 | CCNc1ncc(-c2ccc3ncc4c(c3c2)n(-c2cn(C)nc2C)c(=O)n4C)cc1COCC [Example 167, 1-(1,3-Dimethyl-1H-pyrazol-4-yl)-8-(5-ethoxymethyl-6-ethylamino-pyridin-3-yl)-3-methyl-1,3-dihydro-imidazo[4,5-c]quinolin-2-one]
23 | 19 | 50 | 17 | COc1cc(-c2ccc3ncc4c(c3c2)n(-c2cn(C)nc2C)c(=O)n4C)cnc1CO [Example 193, 1-(1,3-Dimethyl-1H-pyrazol-4-yl)-8-(6-hydroxymethyl-5-methoxy-pyridin-3-yl)-3-methyl-1,3-dihydro-imidazo[4,5-c]quinolin-2-one]
24 | 48 | – | 318 | Cc1nn(C)cc1-n1c(=O)n(C)c2cnc3ccc(-c4ccc(-n5cccn5)nc4)cc3c21 [Example 79, 1-(1,3-Dimethyl-1H-pyrazol-4-yl)-3-methyl-8-(6-pyrazol-1-yl-pyridin-3-yl)-1,3-dihydro-imidazo[4,5-c]quinolin-2-one]
